Reference: patent publication US9278067B2, “Encapsulation of plasmid DNA (lipogenes™) and therapeutic agents with nuclear localization signal/fusogenic peptide conjugates into targeted liposome complexes” (Regulon, Inc., priority 2000, dated 2016)

How the values were obtained:
[1] = tested on: complement system; settings: cited from earlier work
[2] = pH 7.4; cited from earlier work
[3] = tested on: K562 human erythroleukemia cell cultures; assay: Transfection of K562 cells with plasmid pCMVβ, beta-galactosidase reporter expression; assay type: cell-based; settings: FIG. 2
[4] = tested on: C-terminal fragments of the amyloid peptide; settings: cited from earlier work
[5] = low concentrations (0.03-0.1 mM)
[6] = tested on: isolated lysosomes; settings: low concentrations of lipid; cited from earlier work
[7] = tested on: luciferase; settings: cited from earlier work
[8] = cell culture; cited from earlier work
[9] = tested on: several different types of cells; settings: with monovalent cationic liposomal formulations (DC-Chol and lipofectin); cited from earlier work
[10] = tested on: neuronal cell; settings: cited from earlier work

Compound: CCCCCCCCCCCCCCCCCCN(CCCCCCCCCCCCCCCCCC)C(=O)CNC(=O)C(CCCNCCCN)NCCCN (centres unmarked) [DOGS, Dioctadecylamidoglycylspermine]
- complement activation [1]: Strong complement activation

Compound: CCCCCCCCCCCCCCOCC(C[N+](C)(C)CCO)OCCCCCCCCCCCCCC.[Br-] (centres unmarked) [DMRIE, N-[1-(2,3-dimyristyloxy)propyl]-N,N-dimethyl-N-(2-hydroxyethyl) ammonium bromide]
- charged fraction [2]: 100%

Compound: CC(C)CCC[C@@H](C)[C@H]1CC[C@H]2[C@@H]3CC=C4C[C@@H](OC(=O)NCCN(C)C)CC[C@]4(C)[C@H]3CC[C@]12C [DC-cholesterol, 3β[N—(N′,N′-dimethylaminoethane)carbamoyl]cholesterol]
- cationic lipid compared by level of expression of the reporter beta-galactosidase gene ([3]; liposomes L2-L6 with DOPE): best cationic lipid
- charged fraction [2]: about 50%

Compound: apoE4: apolipoprotein E isoform
- inhibition of amyloid peptide fusogenic and aggregational properties [4]: not apoE4

Compound: NCCCNCCCCNCCCN [Spermine]
- transfection efficiency [5]: enhanced significantly transfection efficiency

Compound: polyhistidine
- DNA condensing reagent compared by level of expression of the reporter beta-galactosidase gene ([3]; 10 μg pCMVβ, polyK/polyR/polyH plus liposomes 7 nmoles/μg DNA): best DNA condensing reagent

Compound: apoE2: apolipoprotein E isoform
- inhibition of amyloid peptide fusogenic and aggregational properties [4]: potent inhibitors

Compound: CCCCCCCC/C=C\CCCCCCCC(=O)OCC(C[N+](C)(C)C)OC(=O)CCCCCCC/C=C\CCCCCCCC.[Cl-] (centres unmarked) [DOTAP, N-(1-(2,3-dioleoyloxy)propyl)-N,N,N-trimethylammonium chloride]
- free activity of β-galactosidase of isolated lysosomes (membrane destabilization) [6]: striking increase in free activity of β-galactosidase
- charged fraction [2]: 100%
- increase of antisense activity of anti-luciferase oligonucleotide [7]: over 100 fold

Compound: poly(ethyleneimine)
- complement activation [1]: Strong complement activation

Compound: poly-L-lysine
- efficiency of adenovirus-mediated gene transfer [8]: significantly increased

Compound: Protamine sulfate
- plasmid delivery into cells in vitro [9]: enhanced plasmid delivery
- efficiency of adenovirus-mediated gene transfer [8]: significantly increased

Compound: Non-aggregated amyloid beta-peptide (1-40): Alzheimer's beta-amyloid peptide 1-40, non-aggregated
- Properties: neuronal cell death [10]: Induces apoptotic neuronal

Compound: apoE3: apolipoprotein E isoform
- inhibition of amyloid peptide fusogenic and aggregational properties [4]: potent inhibitors
